According to patent publication US20090318446A1, “4-(1H-Indol-3-yl)-Pyrimidin-2-Ylamine Derivatives and Their Use in Therapy” (Cyclacel Limited, priority 2005, published 2009):

Experiments:
Flt-3 = molecular target: T1, Flt-3 (Homo sapiens, UniProt P36888); assay: Flt3 kinase assay; assay type: biochemical; settings: Table 3; read-out: Kinase inhibition Flt3
T1 construct: purchased Upstate, Dundee, UK
T1 sequence (P36888 564-993 limits assumed): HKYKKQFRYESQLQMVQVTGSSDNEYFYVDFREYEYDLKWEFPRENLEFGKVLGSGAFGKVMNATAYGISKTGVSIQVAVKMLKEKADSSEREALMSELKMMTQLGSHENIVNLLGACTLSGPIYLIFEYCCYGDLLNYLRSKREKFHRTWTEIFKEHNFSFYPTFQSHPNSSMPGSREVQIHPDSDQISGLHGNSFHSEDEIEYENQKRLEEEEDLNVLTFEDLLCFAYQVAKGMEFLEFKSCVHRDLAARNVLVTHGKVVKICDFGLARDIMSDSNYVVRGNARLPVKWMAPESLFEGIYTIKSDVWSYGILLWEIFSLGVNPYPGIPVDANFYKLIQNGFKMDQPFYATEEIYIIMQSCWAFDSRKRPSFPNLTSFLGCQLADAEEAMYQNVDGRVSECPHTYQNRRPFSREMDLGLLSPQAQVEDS
Protocol: This was achieved by measurement of incorporation of radioactive phosphate from ATP into myelin basic protein (MBP) substrate, upon phosphorylation by commercially obtained Flt-3 Upstate, Dundee, UK). Assays were performed using 96-well plates and appropriate assay buffers (20 mM Tris, 25 mM β-glycerophosphate, 5 mM EGTA, 1 mM DTT, 1 mM sodium vanadate, pH 7.5), into which were added 5 ng of active enzyme with 0.4 mg/ml substrate (MBP). The reactions were initiated by addition of MgATP mix (15 mM MgCl2+100 μM ATP with 15-25 kBq per well of [γ-^32P]-ATP) and mixtures incubated for 30 min at 30° C. Reactions were stopped by addition of an equal volume of 75 mM aq orthophosphoric acid, followed by filtration through p81 filterplates (Whatman Polyfiltronics, Kent, UK). After washing 4 times with 75 mM aq orthophosphoric acid, plates were dried, scintillant added and incorporated radioactivity measured in a scintillation counter (TopCount, Packard Instruments, Pangbourne, Berks, UK). Compounds for kinase assay were made up as 10 mM stocks in DMSO and diluted into 10% DMSO in assay buffer. Data was analysed using curve-fitting software (XLfit version 4.0.2, IDBS, Guildford, Surrey, UK) to determine IC50 values (concentration of test compound which inhibits kinase activity by 50%).

CDK7/cyclin H = CDK7/cyclin H (Homo sapiens, UniProt P50613); assay: CDK 7 assay; assay type: biochemical; settings: Table 3; read-out: Kinase inhibition CDK7H
Chain of CDK7/cyclin H (P50613 whole entry): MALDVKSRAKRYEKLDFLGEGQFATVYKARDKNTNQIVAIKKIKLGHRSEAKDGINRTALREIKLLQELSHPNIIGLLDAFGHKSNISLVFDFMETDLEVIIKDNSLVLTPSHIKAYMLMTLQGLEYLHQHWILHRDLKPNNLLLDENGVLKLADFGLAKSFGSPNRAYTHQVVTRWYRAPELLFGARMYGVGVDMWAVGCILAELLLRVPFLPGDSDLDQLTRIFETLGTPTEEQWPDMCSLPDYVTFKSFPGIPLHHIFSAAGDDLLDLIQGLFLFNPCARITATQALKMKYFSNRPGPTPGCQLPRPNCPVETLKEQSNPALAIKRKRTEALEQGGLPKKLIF
Chain of CDK7/cyclin H (P51946 whole entry partner): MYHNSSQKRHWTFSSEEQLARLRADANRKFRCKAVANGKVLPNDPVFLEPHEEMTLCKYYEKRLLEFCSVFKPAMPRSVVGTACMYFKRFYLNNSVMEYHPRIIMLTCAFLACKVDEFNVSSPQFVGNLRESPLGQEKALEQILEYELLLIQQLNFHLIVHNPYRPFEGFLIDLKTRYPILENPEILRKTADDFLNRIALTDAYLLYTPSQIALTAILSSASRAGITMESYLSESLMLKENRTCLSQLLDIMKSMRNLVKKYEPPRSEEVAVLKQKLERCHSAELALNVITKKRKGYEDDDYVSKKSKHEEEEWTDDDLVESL
Protocol: CTD peptide substrate (biotinyl-Ahx-(Tyr-Ser-Pro-Thr-Ser-Pro-Ser)4-NH2; 1-2 mg/mL) and recombinant human CDK7/cyclin H, CDK9/cyclin TI, or CDK9/cyclin K (0.5-2 μg) were incubated for 45 min at 30° C. in the presence of varying amounts of test compound in 20 mM MOPS pH 7.2, 25 mM β-glycerophosphate, 5 mM EGTA, 1 mM DTT, 1 mM sodium vanadate, 15 mM MgCl2, and 100 μM ATP (containing a trace amount of ^32PγATP) in a total volume of 25 μL in a 96-well microtiter plate. The reaction was stopped by placing the plate on ice for 2 min. Avidin (50 μg) was added to each well, and the plate was incubated at room temp for 30 min. The samples were transferred to a 96-well P81 filter plate, and washed (4×200 μL per well) with 75 mM phosphoric acid. Microscint 40 scintillation liquid (50 μL) was added to each well, and the amount of ^32P incorporation for each sample was measured using a Packard Topcount microplate scintillation counter.

Mia-PaCa-2 = assay: MTT cytotoxicity assay, Mia-PaCa-2; assay type: cell-based; settings: Homo sapiens, after incubation
Protocol: (§1) The compounds of the invention were subjected to a standard cellular proliferation assay using human tumour cell lines obtained from the ATCC (American Type Culture Collection, 10801 University Boulevard, Manessas, Va. 20110-2209, USA). […] C.; Thomas, D. G.; Darling, J. L. Anti Cancer Drugs 1996, 7, 331-8; Loveland, B. E.; Johns, T. G.; Mackay, 1. R.; Vaillant, F.; Wang, Z. X.; Hertzog, P. J. Biochemistry International 1992, 27, 501-10). In short: cells were seeded into 96-well plates according to doubling time and incubated overnight at 37° C. […] MTT was made up as a stock of 5 mg/mL in cell media and filter-sterilised. Media was removed from cells followed by a wash with 200 μL PBS. MTT solution was then added at 20 μL per well and incubated in the dark at 37° C. for 4 h MTT solution was removed and cells again washed with 200 μL PBS. MTT dye was solubilised with 200 μL per well of DMSO with agitation. Absorbance was read at 540 nm and data analysed using curve-fitting software (GraphPad Prism version 3.00 for Windows, GrapbPad Software, San Diego Calif. USA) to determine IC50 values (concentration of test compound which inhibits cell growth by 50%).

A2780 = assay: MTT cytotoxicity assay, A2780; assay type: cell-based; settings: Homo sapiens, after incubation
Protocol: as §1

aurora-B = molecular target: T2, aurora-B (Homo sapiens, UniProt Q96GD4); assay: Aurora-B (human) kinase assay; assay type: biochemical; settings: Table 3; read-out: Kinase inhibition Aurora B
T2 construct: purchased Upstate, Dundee, UK
T2 sequence (Q96GD4 whole entry): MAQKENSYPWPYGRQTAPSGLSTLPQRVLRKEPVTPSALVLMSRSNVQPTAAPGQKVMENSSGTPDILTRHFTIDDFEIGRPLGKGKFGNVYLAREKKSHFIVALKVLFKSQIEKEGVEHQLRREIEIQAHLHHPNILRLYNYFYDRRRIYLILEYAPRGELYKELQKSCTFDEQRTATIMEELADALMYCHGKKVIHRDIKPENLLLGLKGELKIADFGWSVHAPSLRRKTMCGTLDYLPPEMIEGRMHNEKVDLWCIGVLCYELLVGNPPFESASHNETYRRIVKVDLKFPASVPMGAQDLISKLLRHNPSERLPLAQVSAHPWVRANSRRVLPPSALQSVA
Protocol: This was achieved by measurement of incorporation of radioactive phosphate from ATP into Kemptide substrate (LRRASLG), upon phosphorylation by commercially obtained aurora-B (human, Upstate, Dundee, UK). Assays were performed using 96-well plates and appropriate assay buffers (20 mM Tris, 25 mM β-glycerophosphate, 5 mM EGTA, 1 mM DTT, 1 mM sodium vanadate, pH 7.5), into which were added 75 ng of pre-activated enzyme with 500 μM substrate (Kemptide). The reactions were initiated by addition of MgATP mix (15 mM MgCl2+100 μM ATP with 15-25 kBq per well of [γ-^32P]-ATP) and mixtures incubated for 60 min at 30° C. Reactions were stopped by addition of an equal volume of 75 mM aq orthophosphoric acid, followed by filtration through p81 filterplates (Whatman Polyfiltronics, Kent, UK). After washing 4 times with 75 mM aq orthophosphoric acid, plates were dried, scintillant added and incorporated radioactivity measured in a scintillation counter (TopCount, Packard Instruments, Pangbourne, Berks, UK). Compounds for kinase assay were made up as 10 mM stocks in DMSO and diluted into 10% DMSO in assay buffer. Data was analysed using curve-fitting software (XLfit version 4.0.2, IDBS, Guildford, Surrey, UK) to determine IC50 values (concentration of test compound which inhibits kinase activity by 50%).
Aurora-B (human, Upstate, Dundee, UK) was pre-activated immediately prior to kinase assay in appropriate buffers (20 mM Tris, 25 mM β-glycerophosphate, 5 mM EGTA, 1 mM DTT, 1 mM sodium vanadate, pH 7.5) by incubating 15 μg of enzyme with 4 μg INCENP (Upstate, Dundee, UK) in the presence of MgATP mix (15 mM MgCl2+100 μM ATP) for 15 min at 30° C.

CDK2/cyclin E = CDK2/cyclin E (Homo sapiens, UniProt P24941); assay: Kinase assay CDK2/cyclin E; assay type: biochemical; settings: Table 3; read-out: Kinase inhibition CDK2E
Protocol: The compounds from the examples above were investigated for their ability to inhibit the enzymatic activity of various protein kinases. This was achieved by measurement of incorporation of radioactive phosphate from ATP into appropriate polypeptide substrates. Recombinant protein kinases and kinase complexes were produced or obtained commercially. Assays were performed using 96-well plates and appropriate assay buffers (typically 25 mM β-glycerophosphate, 20 mM MOPS, 5 mM EGTA, 1 mM DTT, 1 mM […], pH 7.4), into which were added 2-4 μg of active enzyme with appropriate substrates. The reactions were initiated by addition of Mg/ATP mix (15 mM MgCl2+100 μM ATP with 30-50 kBq per well of [γ-^32P]-ATP) and mixtures incubated as required at 30° C. Reactions were stopped on ice, followed by filtration through p81 filterplates or GF/C filterplates (Whatman Polyfiltronics, Kent, UK). After washing 3 times with 75 mM aq orthophosphoric acid, plates were dried, scintillant added and incorporated radioactivity measured in a scintillation counter (TopCount, Packard Instruments, Pangbourne, Berks, UK). Compounds for kinase assay were made up as 10 mM stocks in DMSO and diluted into 10% DMSO in assay buffer. Data was analysed using curve-fitting software (GraphPad Prism version 3.00 for Windows, GraphPad Software, San Diego Calif. USA) to determine IC50 values (concentration of test compound which inhibits kinase activity by 50%).

PKC-α = PKC-α (Homo sapiens, UniProt P17252); settings: reported in reference [74]; cited from earlier work
PKC-δ = PKC-δ (Homo sapiens, UniProt Q05655); settings: reported in reference [74]; cited from earlier work
Chain of PKC-δ (Q05655 whole entry): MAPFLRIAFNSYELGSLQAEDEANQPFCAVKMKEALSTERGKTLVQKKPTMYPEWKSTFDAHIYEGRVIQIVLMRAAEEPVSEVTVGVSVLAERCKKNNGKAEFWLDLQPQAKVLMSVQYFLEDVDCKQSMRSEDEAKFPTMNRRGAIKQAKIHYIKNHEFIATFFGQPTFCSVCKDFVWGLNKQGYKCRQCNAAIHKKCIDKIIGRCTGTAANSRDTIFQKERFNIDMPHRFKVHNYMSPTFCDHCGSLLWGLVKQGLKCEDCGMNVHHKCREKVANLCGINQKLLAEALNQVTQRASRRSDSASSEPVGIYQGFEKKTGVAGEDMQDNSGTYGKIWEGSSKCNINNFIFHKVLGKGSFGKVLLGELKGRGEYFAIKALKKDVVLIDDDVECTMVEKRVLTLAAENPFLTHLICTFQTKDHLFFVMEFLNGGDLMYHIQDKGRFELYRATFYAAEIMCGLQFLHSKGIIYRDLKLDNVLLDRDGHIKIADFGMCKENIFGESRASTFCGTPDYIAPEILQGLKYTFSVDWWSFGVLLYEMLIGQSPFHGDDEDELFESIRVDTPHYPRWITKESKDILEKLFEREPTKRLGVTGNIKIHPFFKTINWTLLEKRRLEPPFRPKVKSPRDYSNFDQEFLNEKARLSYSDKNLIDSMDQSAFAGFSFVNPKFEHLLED

EGF-R = EGF-R (Homo sapiens, UniProt P00533); settings: reported in reference [74]; cited from earlier work
Chain of EGF-R (P00533 25-1210, species assumed): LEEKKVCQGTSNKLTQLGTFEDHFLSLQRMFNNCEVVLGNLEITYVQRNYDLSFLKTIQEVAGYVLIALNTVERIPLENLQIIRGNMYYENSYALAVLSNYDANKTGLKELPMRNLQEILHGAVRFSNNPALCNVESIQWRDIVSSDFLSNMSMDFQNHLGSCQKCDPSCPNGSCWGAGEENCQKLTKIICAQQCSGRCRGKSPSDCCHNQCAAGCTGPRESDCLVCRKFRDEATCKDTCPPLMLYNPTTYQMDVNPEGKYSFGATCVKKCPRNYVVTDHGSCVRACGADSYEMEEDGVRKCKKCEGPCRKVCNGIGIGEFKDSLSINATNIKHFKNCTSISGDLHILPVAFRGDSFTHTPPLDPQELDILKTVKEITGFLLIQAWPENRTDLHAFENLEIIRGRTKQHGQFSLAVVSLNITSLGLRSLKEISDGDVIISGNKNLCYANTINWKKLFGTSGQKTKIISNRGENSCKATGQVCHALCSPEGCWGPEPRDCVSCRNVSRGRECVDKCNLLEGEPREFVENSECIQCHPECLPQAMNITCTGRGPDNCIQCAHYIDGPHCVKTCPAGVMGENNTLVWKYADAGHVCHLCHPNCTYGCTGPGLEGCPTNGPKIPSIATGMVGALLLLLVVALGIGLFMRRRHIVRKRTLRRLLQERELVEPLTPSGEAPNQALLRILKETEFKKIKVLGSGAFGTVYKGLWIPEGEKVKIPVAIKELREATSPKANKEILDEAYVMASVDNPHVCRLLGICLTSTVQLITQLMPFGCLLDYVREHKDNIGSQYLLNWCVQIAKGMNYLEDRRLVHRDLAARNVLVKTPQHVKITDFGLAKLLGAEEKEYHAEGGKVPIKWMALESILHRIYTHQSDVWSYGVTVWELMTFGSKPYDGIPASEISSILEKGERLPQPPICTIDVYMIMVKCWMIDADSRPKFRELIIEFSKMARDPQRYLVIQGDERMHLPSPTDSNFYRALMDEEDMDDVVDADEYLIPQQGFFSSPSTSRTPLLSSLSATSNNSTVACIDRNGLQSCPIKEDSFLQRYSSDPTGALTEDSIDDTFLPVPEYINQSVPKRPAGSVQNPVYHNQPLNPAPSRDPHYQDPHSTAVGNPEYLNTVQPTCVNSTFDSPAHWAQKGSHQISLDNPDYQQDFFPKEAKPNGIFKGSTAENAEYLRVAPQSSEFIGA

| IC50 (Flt-3) | IC50 (CDK7/cyclin H) | IC50 (aurora-B) | IC50 (CDK2/cyclin E) | Structure (SMILES) | IC50 (Mia-PaCa-2) | IC50 (A2780) | kinase inhibition PKC-α (PKC-α) | kinase inhibition PKC-δ (PKC-δ) | kinase inhibition EGF-R (EGF-R) |
| --- | --- | --- | --- | --- | --- | --- | --- | --- | --- |
| 0.0788 µM | 6.04 µM | 1.41 µM |  | c1ccc(CN2CCN(c3ccc(Nc4nccc(-c5c[nH]c6ccccc56)n4)cc3)CC2)cc1 [Compound 8, 4-(1H-indol-3-yl)-N-(4-benzylpiperazin-1-ylphenyl)pyrimidin-2-amine] | 5.46 µM | 5.43 µM |  |  |  |
| 0.726 µM |  |  | 0.332 µM | Cc1cc(N2CCOCC2)ccc1Nc1nccc(-c2c[nH]c3ccccc23)n1 [Compound 11, 4-(1H-indol-3-yl)-N-(2-methyl-4-morpholin-4-ylphenyl)pyrimidin-2-amine] | 6.82 µM | 4.66 µM |  |  |  |
|  |  |  |  | FC(F)C(F)(F)Oc1cccc(Nc2nccc(-c3c[nH]c4ccccc34)n2)c1 [[4-(1H-indol-3-yl)-pyrimidin-2-yl]-[3-(1,1,2,2-tetrafluoro-ethoxy)-phenyl]-amine] |  |  | shown to inhibit | shown to inhibit | shown to inhibit |
